Measurements published in US20240124442A1, “TRICYCLIC-AMIDO-BICYCLIC PRMT5 INHIBITORS” (AMGEN INC., priority 2021, published 2024).

What was measured:
[1] = tested on: HCT116 WT cells; experiment: HCT116 WT (parent) cell line proliferation / cell viability (CellTiter-Glo, 6 days); assay type: cell-based; conditions: Homo sapiens, HCT-116, 144 h, 6 days treatment
Procedure: (§1) HCT116 Proliferation Activity
(§2) To assess selective anti-proliferative activity of compounds of the invention in cells that have loss expression of MTAP, an HCT-116 isogenic cell line pair was utilized where one cell line was engineered to genetically knockout both MTAP alleles. Cell viability was then assessed in both the parent HCT-116 cell line and the MTAP null cell line after 6 days of treatment with compounds of the present invention. Selective anti-proliferative activity in the MTAP null cell line indicates MTA-cooperative inhibition of PRMT5 and ability to inhibit growth of cancer cells that have loss of MTAP.
(§3) HCT116 MTAP null and WT cells were seeded in 96-well tissue culture plates in RPMI 1640 media+10% fetal bovine serum. Plates were incubated overnight at 37° C. and 5% CO2. Cells were then treated with an 8- or 9-point serial dilution of compound, using a top concentration of 1, or 10 μM, 1:3 serial dilution steps and, a DMSO-only control. Cells were incubated in the presence of drug for 6 days. Effects on cell viability were measured with the CellTiter-Glo® Luminescent Cell Viability Assay (Promega) per manufacturer's recommendation. Assay plates were read on an EnVision™ Multilabel Reader using the Ultra-Sensitive luminescence module. IC50 values were calculated with GraphPad Prism v 5.01 using symmetrical sigmoidal dose-response least squares fit with Hill slope fixed to −1 and top constrain to 100% or GeneData Screener using a 4-parameter logistic model to fit dose response curves.
(§4) Alternatively, compounds could be assayed with a 384 well plate format:
(§5) Compounds were pre-spotted into 384 well plates with a 22-point serial dilution of compound, using a top concentration of 10 or 50 μM, 1:2 serial dilution steps and, a DMSO-only control. HCT116 MTAP null and WT cells were then seeded as above and after 6 days effects on cell viability were measured with the CellTiter-Glo® Luminescent Cell Viability Assay (Promega). Assay plates were read as above and IC50 values were calculated with GeneData Screener using a 4-parameter logistic model to fit dose response curves. The reported IC50 represents the value where the curve transits 50% of control.

[2] = tested on: HCT116 MTAP null cells; experiment: HCT116 MTAP null cell line proliferation / cell viability (CellTiter-Glo, 6 days); assay type: cell-based; conditions: 144 h; HCT116 MTAP null cells, 6 days treatment, CellTiter-Glo cell viability; read-out: HCT-116 MTAP null IC50
Procedure: as §1, §2, §3, §4, §5

Compound: [2H]C([2H])([2H])N(C(=O)c1cc2c3c(c(N)nc2cn1)COC3)[C@H]1COc2cc(C(F)(F)F)ccc21 (single isomer, unassigned) [Example 338]
- IC50 [1]: 37500 nM
- IC50 [2]: 4680 nM

Compound: CC(C)CN(C(=O)c1ccc2nc(N)c3cnn(C)c3c2c1)[C@H]1COCc2nc(C(F)(F)F)ccc21 [Example 505, 4-amino-1-methyl-N-(2-methylpropyl)-N-((5R)-2-(trifluoromethyl)-5,8-dihydro-6H-pyrano[3,4-b]pyridin-5-yl)-1H-pyrazolo[4,3-c]quinoline-8-carboxamide]
- IC50 [1]: 12100 nM
- IC50 [2]: 244 nM

Compound: CN(C(=O)c1cc2c3c(c(N)nc2cn1)COC3)[C@H]1COc2nc(C(F)(F)F)ccc21 (single isomer, unassigned) [Example 336]
- IC50 [1]: 50000 nM
- IC50 [2]: 11900 nM

Compound: CCN(C(=O)c1ccc2nc(N)c3c(c2c1)COC3)c1coc2cc(C(F)(F)F)ccc12 [Example 451, 4-amino-N-ethyl-N-(6-(trifluoromethyl)-1-benzofuran-3-yl)-1,3-dihydrofuro[3,4-c]quinoline-8-carboxamide]
- IC50 [1]: 9520 nM
- IC50 [2]: 5180 nM

Compound: CN(C(=O)c1cc2c(cc1F)nc(N)c1cnn(C)c12)[C@@H]1COc2nc(C(F)(F)F)ccc21 (single isomer, unassigned) [Example 377]
- IC50 [1]: 595 nM
- IC50 [2]: 10 nM

Compound: COc1ccc2c(n1)COC[C@H]2N(C)C(=O)c1cc2c(cc1F)nc(N)c1c2cnn1C [Example 513, 4-amino-7-fluoro-N-((5S)-2-methoxy-5,8-dihydro-6H-pyrano[3,4-b]pyridin-5-yl)-N,3-dimethyl-3H-pyrazolo[3,4-c]quinoline-8-carboxamide]
- IC50 [1]: 10200 nM
- IC50 [2]: 168 nM

Compound: CN(C(=O)c1ccc2nc(N)c3cnn(C)c3c2c1)[C@@H]1COc2cc(Cl)ccc21 [Example 687, (S)-4-amino-N-(6-chloro-2,3-dihydrobenzofuran-3-yl)-N,1-dimethyl-1H-pyrazolo[4,3-c]quinoline-8-carboxamide 2,2,2-trifluoroacetate]
- IC50 [1]: 846 nM
- IC50 [2]: 12 nM

Compound: CN(C(=O)c1cc2c(cn1)nc(N)c1c2cnn1C)[C@@H]1COc2cc(C(F)(F)F)ccc21 [Example 256, 4-amino-N,3-dimethyl-N-((3S)-6-(trifluoromethyl)-2,3-dihydro-1-benzofuran-3-yl)-3H-pyrazolo[3,4-c][1,7]naphthyr-idine-8-carboxamide]
- IC50 [1]: 7500 nM
- IC50 [2]: 143 nM

Compound: CN(C(=O)c1cc2c3c(c(N)nc2cc1F)COC3)[C@H]1COc2nc(C(F)(F)F)ccc21 (single isomer, unassigned) [Example 352]
- IC50 [1]: 50000 nM
- IC50 [2]: 3250 nM

Compound: C[C@@H]1OC[C@H](N(C)C(=O)c2ccc3nc(N)c4c(cnn4C)c3c2)c2ccc(C(F)(F)F)cc21 (single isomer, unassigned) [Example 604]
- IC50 [1]: 19100 nM
- IC50 [2]: 2300 nM

Compound: CN(C(=O)c1cc2c(cc1F)nc(N)c1c2cnn1C)[C@@H]1COc2cc(Cl)c(Cl)cc21 [Example 483, 4-amino-N-((3S)-5,6-dichloro-2,3-dihydro-1-benzofuran-3-yl)-7-fluoro-N,3-dimethyl-3H-pyrazolo[3,4-c]quinoline-8-carboxamide]
- IC50 [1]: 5280 nM
- IC50 [2]: 81 nM

Compound: CN(C(=O)c1cc2c(cc1F)nc(N)c1c2cnn1C)C1CSc2cc(Br)ccc21 (racemic) [Example 484, 4-amino-N-((3R)-6-bromo-2,3-dihydro-1-benzothiophen-3-yl)-7-fluoro-N,3-dimethyl-3H-pyrazolo[3,4-c]quinoline-8-carboxamide and 4-amino-N-((3S)-6-bromo-2,3-dihydro-1-benzothiophen-3-yl)-7-fluoro-N,3-dimethyl-3H-pyrazolo[3,4-c]quinoline-8-carboxamide]
- IC50 [1]: 5590 nM
- IC50 [2]: 221 nM

Compound: CN(C(=O)c1cc2c(cc1F)nc(N)c1cnn(C)c12)[C@@H]1COCc2cc(C#N)ccc21 (single isomer, unassigned) [Example 595]
- IC50 [1]: 275 nM
- IC50 [2]: 5 nM

Compound: CN(C(=O)c1ccc2nc(N)c3cnn(C)c3c2c1)[C@@H]1COc2cc(C(F)(F)F)cc(Cl)c21 [Example 231, 4-amino-N-((3S)-4-chloro-6-(trifluoromethyl)-2,3-dihydro-1-benzofuran-3-yl)-N,1-dimethyl-1H-pyrazolo[4,3-c]-quinoline-8-carboxamide]
- IC50 [1]: 2060 nM
- IC50 [2]: 215 nM

Compound: CN(C(=O)c1cc2c3c(c(N)nc2cc1F)COC3)C1c2ccc(C(F)(F)F)nc2CC1(C)C (racemic) [Example 213, 4-amino-N-((5R)-6,6-dimethyl-2-(trifluoromethyl)-6,7-dihydro-5H-cyclopenta[b]-pyridin-5-yl)-7-fluoro-N-methyl-1,3-dihydrofuro[3,4-c]-quinoline-8-carboxamide and 4-amino-N-((5S)-6,6-dimethyl-2-(trifluoromethyl)-6,7-dihydro-5H-cyclopenta[b]-pyridin-5-yl)-7-fluoro-N-methyl-1,3-dihydrofuro[3,4-c]-quinoline-8-carboxamide]
- IC50 [1]: 12900 nM
- IC50 [2]: 365 nM

Compound: CN(C(=O)c1ccc2nc(N)c3cnn(C)c3c2c1)C1CCc2ccccc21 (racemic) [Example 681, 4-amino-N-((1R)-2,3-dihydro-1H-inden-1-yl)-N,1-dimethyl-1H-pyrazolo[4,3-c]quinoline-8-carboxamide and 4-amino-N-((1S)-2,3-dihydro-1H-inden-1-yl)-N,1-dimethyl-1H-pyrazolo[4,3-c]quinoline-8-carboxamide]
- IC50 [1]: 9330 nM
- IC50 [2]: 530 nM

Compound: CN(C(=O)c1cc2c(cc1F)nc(N)c1cnn(C)c12)[C@@H]1COCc2cc(OC(F)(F)F)ccc21 (single isomer, unassigned) [Example 430]
- IC50 [1]: 75 nM
- IC50 [2]: 3 nM

Compound: C[C@@H]1OCc2c(N)nc3ccc(C(=O)N(C)C4COc5cc(C(F)(F)F)ccc54)cc3c21 (mixture of isomers) [Example 205, (1R)-4-amino-N,1-dimethyl-N-((3S)-6-(trifluoromethyl)-2,3-dihydro-1-benzofuran-3-yl)-1,3-dihydrofuro[3,4-c]quinoline-8-carboxamide and (1S)-4-amino-N,1-dimethyl-N-((3S)-6-(trifluoromethyl)-2,3-dihydro-1-benzofuran-3-yl)-1,3-dihydrofuro[3,4-c]quinoline-8-carboxamide]
- IC50 [1]: 12300 nM
- IC50 [2]: 360 nM

Compound: CCOc1ccc2c(c1)OC[C@H]2N(C)C(=O)c1ccc2nc(N)c3cnn(C)c3c2c1 [Example 675, 4-amino-N-((3S)-6-ethoxy-2,3-dihydro-1-benzofuran-3-yl)-N,1-dimethyl-1H-pyrazolo[4,3-c]quinoline-8-carboxamide]
- IC50 [1]: 2750 nM
- IC50 [2]: 25 nM

Compound: CN(C(=O)c1cc2c3c(c(N)nc2cc1Cl)COC3)[C@@H]1COCc2nc(C#N)ccc21 (single isomer, unassigned) [Example 402]
- IC50 [1]: 436 nM
- IC50 [2]: 8 nM

Compound: CN(C(=O)c1cc2c(cc1F)nc(N)c1cnn(C)c12)C1CCOc2nc(C(F)(F)F)ccc21 [Example 291, 4-amino-7-fluoro-N,1-dimethyl-N-((4R)-7-(trifluoromethyl)-3,4-dihydro-2H-pyrano[2,3-b]-pyridin-4-yl)-1H-pyrazolo[4,3-c]quinoline-8-carboxamide and 4-amino-7-fluoro-N,1-dimethyl-N-((4S)-7-(trifluoromethyl)-3,4-dihydro-2H-pyrano[2,3-b]pyr-idin-4-yl)-1H-pyrazolo[4,3-c]-quinoline-8-carboxamide]
- IC50 [1]: 10500 nM
- IC50 [2]: 169 nM

Compound: CN(C(=O)c1cc2c(cc1Cl)nc(N)c1c2cnn1C)C1CCc2nc(C(F)(F)F)ccc21 (racemic) [Example 485, 4-amino-7-chloro-N,3-dimethyl-N-((5R)-2-(trifluoromethyl)-6,7-dihydro-5H-cyclopenta[b]pyridin-5-yl)-3H-pyrazolo[3,4-c]quinoline-8-carboxamide and 4-amino-7-chloro-N,3-dimethyl-N-((5S)-2-(trifluoromethyl)-6,7-dihydro-5H-cyclopenta[b]pyridin-5-yl)-3H-pyrazolo[3,4-c]quinoline-8-carboxamide]
- IC50 [1]: 11700 nM
- IC50 [2]: 125 nM

Compound: CN(C(=O)c1ccc2nc(N)c3c(c2c1)COC3)[C@H]1COc2cc(C3=CCOCC3)ccc21 (single isomer, unassigned) [Example 613]
- IC50 [1]: 2630 nM
- IC50 [2]: 860 nM

Compound: CN(C(=O)c1ccc2nc(N)c3cnn(C)c3c2c1)[C@@H]1CCc2nc(Br)ccc21 (single isomer, unassigned) [Example 370]
- IC50 [1]: 1800 nM
- IC50 [2]: 29 nM

Compound: CN(C(=O)c1cc2c(cc1Cl)nc(N)c1c2cnn1C)[C@@H]1COc2cc(C(F)(F)F)ccc21 [Example 486, 4-amino-7-chloro-N,3-dimethyl-N-((3S)-6-(trifluoromethyl)-2,3-dihydro-1-benzofuran-3-yl)-3H-pyrazolo[3,4-c]quinoline-8-carboxamide]
- IC50 [1]: 4880 nM
- IC50 [2]: 78 nM
